This is an account of results in patent US11655217B2, “Pyrazole MAGL inhibitors” (H. Lundbeck A/S, priority 2017, dated 2023).

Assay [1] concerns the target FAAH (Mus musculus (Mouse), UniProt O08914). Description: Mouse brain proteomes from inhibitor treated mice (oral gavage, sacrificed 4 h after administration, ABPP analysis), FAAH. The note with it: 5 mg/kg oral gavage.
Description: (§1) Preparation of Mouse Brain Proteomes from Inhibitor Treated Mice.
(§2) Inhibitors were administered to wild-type C57Bl/6J by oral gavage in a vehicle of polyethylene glycol.
For assay [2], the target named is MAGL (Mus musculus (Mouse), UniProt O35678). Description: Mouse brain proteomes from inhibitor treated mice (oral gavage, sacrificed 4 h after administration, ABPP analysis). To be noted: 5 mg/kg oral gavage.
Chain of MAGL (O35678 whole entry): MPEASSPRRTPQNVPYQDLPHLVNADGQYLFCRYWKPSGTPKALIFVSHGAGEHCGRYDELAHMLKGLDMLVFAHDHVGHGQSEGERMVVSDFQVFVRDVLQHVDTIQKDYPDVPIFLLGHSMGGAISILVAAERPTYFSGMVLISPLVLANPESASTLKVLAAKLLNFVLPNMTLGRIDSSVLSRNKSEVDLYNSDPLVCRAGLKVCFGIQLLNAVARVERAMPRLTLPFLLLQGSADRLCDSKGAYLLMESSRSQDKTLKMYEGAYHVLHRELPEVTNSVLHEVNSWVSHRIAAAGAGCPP
Description: as §1, §2

Chain of FAAH (O08914 whole entry): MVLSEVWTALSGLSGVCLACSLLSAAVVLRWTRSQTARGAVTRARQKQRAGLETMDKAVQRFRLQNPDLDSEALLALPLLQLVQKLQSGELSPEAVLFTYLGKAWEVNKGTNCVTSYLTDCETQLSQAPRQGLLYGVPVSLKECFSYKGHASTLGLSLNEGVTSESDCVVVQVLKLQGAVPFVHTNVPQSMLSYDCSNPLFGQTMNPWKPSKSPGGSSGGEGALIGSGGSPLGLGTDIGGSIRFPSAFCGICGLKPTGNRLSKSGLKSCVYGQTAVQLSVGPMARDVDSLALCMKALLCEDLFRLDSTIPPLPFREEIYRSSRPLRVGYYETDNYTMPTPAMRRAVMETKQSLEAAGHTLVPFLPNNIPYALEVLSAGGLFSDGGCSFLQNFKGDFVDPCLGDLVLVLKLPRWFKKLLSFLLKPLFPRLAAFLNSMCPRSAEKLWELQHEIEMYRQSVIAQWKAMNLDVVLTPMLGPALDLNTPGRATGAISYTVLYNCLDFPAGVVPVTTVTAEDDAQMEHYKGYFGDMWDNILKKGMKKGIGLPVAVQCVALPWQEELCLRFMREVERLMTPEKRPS

In the case of `Cc1c(CN2CCN(C(=O)n3ccc(C(=O)O)n3)CC2)[nH]c2ccc(Cl)cc12` [Example 188, 1-(4-((5-chloro-3-methyl-1H-indol-2-yl)methyl)piperazine-1-carbonyl)-1H-pyrazole-3-carboxylic acid], the “FAAH % inh. 5 mg/kg (mouse)” value in assay [1] was “D (% inhibition is greater than or equal to 0% and less than 25%)”. Further, the “MAGL % inh. 5 mg/kg (mouse)” value in assay [2] was “D (% inhibition is greater than or equal to 0% and less than 25%)”.

As for `O=C(O)c1ccn(C(=O)N2CCN(Cc3ccc(C(F)(F)F)cc3N3CC4COCC4C3)CC2)n1` (stereo not shown) [Example 106, 1-(4-(2-(tetrahydro-1H-furo[3,4-c]pyrrol-5(3H)-yl)-4-(trifluoromethyl)benzyl)piperazine-1-carbonyl)-1H-pyrazole-3-carboxylic acid], in assay [1], the “FAAH % inh. 5 mg/kg (mouse)” value is “D (% inhibition is greater than or equal to 0% and less than 25%)”. For the same molecule, the “MAGL % inh. 5 mg/kg (mouse)” value in assay [2] is “D (% inhibition is greater than or equal to 0% and less than 25%)”.

With `O=C(O)c1nn(C(=O)N2CCC3(CCCN3Cc3cc4ccc(C(F)(F)F)cc4s3)CC2)cc1Cl` [Example 139, 4-chloro-1-(1-((6-(trifluoromethyl)benzo[b]thiophen-2-yl)methyl)-1,8-diazaspiro[4.5]decane-8-carbonyl)-1H-pyrazole-3-carboxylic acid], the “FAAH % inh. 5 mg/kg (mouse)” value in assay [1] is “D (% inhibition is greater than or equal to 0% and less than 25%)”. The “MAGL % inh. 5 mg/kg (mouse)” value in assay [2] was “D (% inhibition is greater than or equal to 0% and less than 25%)”.

As to `O=C(O)c1ccn(C(=O)N2CCN(Cc3ccc(C(F)(F)F)cc3N3CCN(C4CC4)CC3)CC2)n1` [Example 6, 1-(4-(2-(4-Cyclopropylpiperazin-1-yl)-4-(trifluoromethyl)benzyl)piperazine-1-carbonyl)-1H-pyrazole-3-carboxylic Acid], the “FAAH % inh. 5 mg/kg (mouse)” value in assay [1] was “D (% inhibition is greater than or equal to 0% and less than 25%)”. In addition, the “MAGL % inh. 5 mg/kg (mouse)” value in assay [2] is “D (% inhibition is greater than or equal to 0% and less than 25%)”.

Regarding `O=C(O)c1ccn(C(=O)N2C[C@H]3C[C@H](OCc4ccc(Oc5ccc(Cl)cc5)cc4)C[C@H]3C2)n1` [Example 55, 1-(trans-5-((4-(4-chlorophenoxy)benzyl)-oxy)octahydrocyclo-penta-[c]pyrrole-2-carbonyl)-1H-pyrazole-3-carboxylic acid], the “FAAH % inh. 5 mg/kg (mouse)” value in assay [1] was “D (% inhibition is greater than or equal to 0% and less than 25%)”. Also, the “MAGL % inh. 5 mg/kg (mouse)” value in assay [2] was “D (% inhibition is greater than or equal to 0% and less than 25%)”.

As for `O=C(O)c1ccn(C(=O)N2CCC3(CCCN3Cc3ccc(C(F)(F)F)cc3N3CCCC3)CC2)n1` [Example 93, 1-(1-(2-(pyrrolidin-1-yl)-4-(trifluoromethyl)benzyl)-1,8-diazaspiro[4.5]decane-8-carbonyl)-1H-pyrazole-3-carboxylic acid], the “FAAH % inh. 5 mg/kg (mouse)” value in assay [1] was “D (% inhibition is greater than or equal to 0% and less than 25%)”. Further, in assay [2], the “MAGL % inh. 5 mg/kg (mouse)” value was “D (% inhibition is greater than or equal to 0% and less than 25%)”.

With `CN(Cc1ccc(C(F)(F)F)cc1N1C2CCC1COC2)C1(C)CCN(C(=O)n2ccc(C(=O)O)n2)CC1` [Example 207, 1-(4-((2-(3-oxa-8-azabicyclo[3.2.1]octan-8-yl)-4-(trifluoromethyl)benzyl)(methyl)-amino)-4-methyl-piperidine-1-carbonyl)-1H-pyrazole-3-carboxylic acid], in assay [1], the “FAAH % inh. 5 mg/kg (mouse)” value was “D (% inhibition is greater than or equal to 0% and less than 25%)”. Also, the “MAGL % inh. 5 mg/kg (mouse)” value in assay [2] was “D (% inhibition is greater than or equal to 0% and less than 25%)”.

In the case of `O=C(O)c1ccn(C(=O)N2CCN(Cc3cccc(Cl)c3N3C4CCC3COC4)CC2)n1` [Example 212, 1-(4-(2-(3-oxa-8-azabicyclo[3.2.1]octan-8-yl)-3-chlorobenzyl)piper-azine-1-carbonyl)-1H-pyrazole-3-carboxylic acid], the “FAAH % inh. 5 mg/kg (mouse)” value in assay [1] was “D (% inhibition is greater than or equal to 0% and less than 25%)”. For the same molecule, the “MAGL % inh. 5 mg/kg (mouse)” value in assay [2] is “D (% inhibition is greater than or equal to 0% and less than 25%)”.

In the case of `O=C(O)c1nn(C(=O)N2CCN(Cc3cccc(Oc4ccc(Cl)cc4)c3)CC2)cc1Cl` [Example 132, 4-chloro-1-(4-(3-(4-chlorophenoxy)benzyl)piperazine-1-carbonyl)-1H-pyrazole-3-carboxylic acid], the “FAAH % inh. 5 mg/kg (mouse)” value in assay [1] was “D (% inhibition is greater than or equal to 0% and less than 25%)”. Further, the “MAGL % inh. 5 mg/kg (mouse)” value in assay [2] is “D (% inhibition is greater than or equal to 0% and less than 25%)”.

On to `O=C(O)c1nn(C(=O)N2CCC3(CCN(Cc4cc(Cl)ccc4C(F)(F)F)C3)CC2)cc1Cl` [Example 133, 4-chloro-1-(2-(5-chloro-2-(trifluoromethyl)benzyl)-2,8-diazaspiro[4.5]decane-8-carbonyl)-1H-pyrazole-3-carboxylic acid], for which the “FAAH % inh. 5 mg/kg (mouse)” value in assay [1] is “D (% inhibition is greater than or equal to 0% and less than 25%)”. Moreover, the “MAGL % inh. 5 mg/kg (mouse)” value in assay [2] is “D (% inhibition is greater than or equal to 0% and less than 25%)”.

As for `COC1CCN(c2cc(C(F)(F)F)ccc2CN2CCN(C(=O)n3ccc(C(=O)O)n3)CC2)CC1` [Example 12, 1-(4-(2-(4-Methoxypiperidin-1-yl)-4-(trifluoromethyl)benzyl)piperazine-1-carbonyl)-1H-pyrazole-3-carboxylic Acid], the “FAAH % inh. 5 mg/kg (mouse)” value in assay [1] is “D (% inhibition is greater than or equal to 0% and less than 25%)”. Besides, in assay [2], the “MAGL % inh. 5 mg/kg (mouse)” value is “D (% inhibition is greater than or equal to 0% and less than 25%)”.

Take `O=C(O)c1ccn(C(=O)N2C[C@H]3C[C@H](OCc4cccc(Oc5ccc(Cl)cc5)c4)C[C@H]3C2)n1` [Example 158, 1-(trans-5-((3-(4-chlorophenoxy)benzyl)oxy)octa-hydrocyclopenta[c]pyrrole-2-carbonyl)-1H-pyrazole-3-carboxylic acid]: the “FAAH % inh. 5 mg/kg (mouse)” value in assay [1] is “D (% inhibition is greater than or equal to 0% and less than 25%)”. The “MAGL % inh. 5 mg/kg (mouse)” value in assay [2] was “D (% inhibition is greater than or equal to 0% and less than 25%)”.

Take `O=C(O)c1ccn(C(=O)N2CCN(Cc3ccc(C(F)(F)F)c(N4C5CCC4COC5)c3)CC2)n1` [Example 40, 1-(4-(3-(3-oxa-8-azabicyclo[3.2.1]octan-8-yl)-4-(trifluoromethyl)benzyl)piperazine-1-carbonyl)-1H-pyrazole-3-carboxylic acid]: in assay [1], the “FAAH % inh. 5 mg/kg (mouse)” value was “D (% inhibition is greater than or equal to 0% and less than 25%)”. Further, the “MAGL % inh. 5 mg/kg (mouse)” value in assay [2] was “D (% inhibition is greater than or equal to 0% and less than 25%)”.

For the molecule `O=C(O)c1ccn(C(=O)N2CCN(Cc3cccc(Oc4cc(C(F)(F)F)ccn4)c3)CC2)n1` [Example 57, 1-(4-(3-((4-(trifluoromethyl)pyridin-2-yl)oxy)benzyl)piperazine-1-carbonyl)-1H-pyrazole-3-carboxylic acid], the “FAAH % inh. 5 mg/kg (mouse)” value in assay [1] was “D (% inhibition is greater than or equal to 0% and less than 25%)”. For the same molecule, the “MAGL % inh. 5 mg/kg (mouse)” value in assay [2] is “D (% inhibition is greater than or equal to 0% and less than 25%)”.

As to `O=C(O)c1ccn(C(=O)N2CCN(Cc3ccc(Cl)cc3N3CCCC3)CC2)n1` [Example 107, 1-(4-(4-chloro-2-(pyrrolidin-1-yl)benzyl)piperazine-1-carbonyl)-1H-pyrazole-3-carboxylic acid], the “FAAH % inh. 5 mg/kg (mouse)” value in assay [1] is “D (% inhibition is greater than or equal to 0% and less than 25%)”. Further, the “MAGL % inh. 5 mg/kg (mouse)” value in assay [2] was “D (% inhibition is greater than or equal to 0% and less than 25%)”.

Take `O=C(O)c1ccn(C(=O)N2CCC3(CCN(Cc4cc(Cl)ccc4C(F)(F)F)C3)CC2)n1` [Example 43, 1-(2-(5-chloro-2-(trifluoromethyl)benzyl)-2,8-diazaspiro[4.5]decane-8-carbonyl)-1H-pyrazole-3-carboxylic acid]: the “FAAH % inh. 5 mg/kg (mouse)” value in assay [1] was “D (% inhibition is greater than or equal to 0% and less than 25%)”. In addition, the “MAGL % inh. 5 mg/kg (mouse)” value in assay [2] was “D (% inhibition is greater than or equal to 0% and less than 25%)”.

Take `O=C(O)c1ccn(C(=O)N2CCN(Cc3ccc(C(F)(F)F)cc3N3CC[C@H](F)C3)CC2)n1` [Example 92, (S)-1-(4-(2-(3-fluoropyrrolidin-1-yl)-4-(trifluoromethyl)benzyl)-piperazine-1-carbonyl)-1H-pyrazole-3-carboxylic acid]: in assay [1], the “FAAH % inh. 5 mg/kg (mouse)” value was “D (% inhibition is greater than or equal to 0% and less than 25%)”. For the same molecule, the “MAGL % inh. 5 mg/kg (mouse)” value in assay [2] was “D (% inhibition is greater than or equal to 0% and less than 25%)”.

`Cc1c(CO[C@H]2C[C@@H]3CN(C(=O)n4ccc(C(=O)O)n4)C[C@@H]3C2)cccc1C(F)(F)F` [Example 159, 1-(trans-5-((2-methyl-3-(trifluoromethyl)benzyl)oxy)octa-hydrocyclopenta[c]pyrrole-2-carbonyl)-1H-pyrazole-3-carboxylic acid]: in assay [1], the “FAAH % inh. 5 mg/kg (mouse)” value was “D (% inhibition is greater than or equal to 0% and less than 25%)”. Besides, the “MAGL % inh. 5 mg/kg (mouse)” value in assay [2] is “D (% inhibition is greater than or equal to 0% and less than 25%)”.

On to `CN(Cc1ccc(C(F)(F)F)cc1N1CCOCC1)C1(C)CCN(C(=O)n2ccc(C(=O)O)n2)CC1` [Example 4, 1-(4-Methyl-4-(methyl(2-morpholino-4-(trifluoromethyl)benzyl)amino)piperidine-1-carbonyl)-1H-pyrazole-3-carboxylic Acid], for which the “FAAH % inh. 5 mg/kg (mouse)” value in assay [1] is “D (% inhibition is greater than or equal to 0% and less than 25%)”. Moreover, the “MAGL % inh. 5 mg/kg (mouse)” value in assay [2] is “D (% inhibition is greater than or equal to 0% and less than 25%)”.

For the molecule `O=C(O)c1ccn(C(=O)N2CCN(Cc3ccc(C(F)(F)F)cc3N3CCCCC3)CC2)n1` [Example 100, 1-(4-(2-(piperidin-1-yl)-4-(trifluoromethyl)benzyl)piperazine-1-carbonyl)-1H-pyrazole-3-carboxylic acid], the “FAAH % inh. 5 mg/kg (mouse)” value in assay [1] was “D (% inhibition is greater than or equal to 0% and less than 25%)”. The “MAGL % inh. 5 mg/kg (mouse)” value in assay [2] is “D (% inhibition is greater than or equal to 0% and less than 25%)”.
